Results: patent US8334288B2, “4-phenoxymethylpiperidines as modulators of GPR119 activity” (IRM LLC, priority 2008, dated 2012)

What follows are compounds tested against T1, human GPR119 (Homo sapiens, UniProt Q8TDV5) (assay: Cyclic AMP assay in stable cell line (HTRF, Flp-In-CHO-hGPR119 cells)). Conditions: increase in intracellular cAMP, 30 minutes at 37° C., 1 mM IBMX.
T1 construct: expressed in transfected cells; host or cells: Flp-In-CHO cells (Invitrogen, Cat. #R758-07), stably transfected with pcDNA5/FRT-human GPR119 plus pOG44
T1 sequence (Q8TDV5 1-335): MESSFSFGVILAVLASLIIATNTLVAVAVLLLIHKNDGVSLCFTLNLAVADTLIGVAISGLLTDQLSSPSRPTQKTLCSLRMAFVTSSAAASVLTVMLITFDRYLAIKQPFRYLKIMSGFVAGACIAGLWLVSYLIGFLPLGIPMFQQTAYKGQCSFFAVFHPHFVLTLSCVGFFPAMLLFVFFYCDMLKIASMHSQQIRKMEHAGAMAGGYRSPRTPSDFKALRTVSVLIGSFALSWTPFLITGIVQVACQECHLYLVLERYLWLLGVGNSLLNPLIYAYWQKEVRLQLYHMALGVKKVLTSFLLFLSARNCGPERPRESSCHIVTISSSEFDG
Format: cell-based
Procedure: Flp-In-CHO cells (Invitrogen, Cat. #R758-07) are maintained in Ham's F12 medium supplemented with 10% fetal bovine serum, 1% antibiotic mixture and 2 mM L-glutamine. The cells are transfected with a DNA mixture containing human GPR119 in pcDNA5/FRT vector and the pOG44 vector (1:9) using Fugene6 (Roche), according to the manufacturer's instruction. After 48 h, the medium is changed to medium supplemented with 400 μg/ml hygromycin B to initiate the selection of stably transfected cells.
To test the activity of compounds of the invention, Flp-In-CHO-hGPR119 cells are harvested and resuspended in DMEM plus 3% lipid-depleted fetal bovine serum. Forth μl of cells are plated in 384 well plates at a density of 15,000 cells/well. IBMX (3-isobutyl-1-methyl-xanthine) is added to the cells to a final concentration of 1 mM, followed by the addition of 500 nl of the compound to be tested. The cells are incubated at 37° C. for 30 minutes. Equal volume (20 μl) of the HTRF reagents, anti-cAMP-Cryptate and cAMP-XL665, are added to the cells. The plates are incubated at rt for 1 h and read on a HTRF reader according to the manufacturer's instruction.

| Compound | EC50 |
| --- | --- |
| CCc1cnc(N2CCC(COc3c(F)cc(-c4ccc(S(C)(=O)=O)nc4)cc3F)CC2)nc1 [Example A22] | 2 nM |
| CC1(OC(=O)N2CCC(COc3c(F)cc(-c4ccc(C5(N)CC5)nc4)cc3F)CC2)CC1 [Example A39] | 37 nM |
| CCc1cnc(N2CCC(COc3c(F)cc(-c4ccc(CO)cc4)cc3F)CC2)nc1 [Example A14] | 5 nM |
| CC1(OC(=O)N2CCC(COc3c(F)cc(-c4cnc(C(=O)N5CCC(O)CC5)nc4)cc3F)CC2)CC1 [Example J1] | 13 nM |
| CCCS(=O)(=O)c1ccc(-c2cc(F)c(OCC3CCN(C(=O)OC(C)CC)CC3)c(F)c2)c(C)n1 (stereo not shown) [Example F6, sec-butyl 4-((2,6-difluoro-4-(2-methyl-6-(propylsulfonyl)pyridin-3-yl)phenoxy)methyl)piperidine-1-carboxylate] | 1 nM |
| CC1(OC(=O)N2CCC(COc3c(F)cc(-c4cnc(C(=O)NCCCO)nc4)cc3F)CC2)CC1 [Example J15] | 45 nM |
| CCOC(=O)CCNC(=O)c1ncc(-c2cc(F)c(OCC3CCN(C(=O)OC4(C)CC4)CC3)c(F)c2)cn1 [Example J8] | 10 nM |
| CCCS(=O)(=O)c1ccc(-c2cc(F)c(OCC3CCN(C(=O)OC4(C)CC4)CC3)c(F)c2)c(C)n1 [Example F4, 1-methylcyclopropyl 4-((2,6-difluoro-4-(2-methyl-6-(propylsulfonyl)pyridin-3-yl)phenoxy)methyl)piperidine-1-carboxylate] | 0.3 nM |
| CCc1cnc(N2CCC(COc3c(F)cc(-c4cnc(N5CCCC5)nc4)cc3F)CC2)nc1 [Example A16] | 171 nM |
| CC1(OC(=O)N2CCC(COc3c(F)cc(-c4cnc5[nH]c(=O)oc5c4)cc3F)CC2)CC1 [Example J11] | 263 nM |
| CCN(CCO)C(=O)c1ncc(-c2cc(F)c(OCC3CCN(C(=O)OC4(C)CC4)CC3)c(F)c2)cn1 [Example J5] | 19 nM |
| CCc1cnc(N2CCC(COc3c(F)cc(-c4ccc(-n5cncn5)nc4C)cc3F)CC2)nc1 [Example F1, 2-(4-((2,6-difluoro-4-(2-methyl-6-(1H-1,2,4-triazol-1-yl)pyridin-3-yl)phenoxy)methyl)piperidin-1-yl)-5-ethylpyrimidine] | 0.5 nM |
| CCc1cnc(N2CCC(COc3c(F)cc(-c4ccc(S(=O)(=O)CC5(C)COC5)cc4)cc3F)CC2)nc1 [Example A3, 2-(4-((3,5-difluoro-4′-((3-methyloxetan-3-yl)methylsulfonyl)biphenyl-4-yloxy)methyl)piperidin-1-yl)-5-ethylpyrimidine] | 0.7 nM |
| CCc1cnc(N2CCC(COc3c(F)cc(-c4ccc(S(C)(=O)=O)cc4)cc3F)CC2)nc1 [Example A6] | 0.7 nM |
| CCc1cnc(N2CCC(COc3c(F)cc(-c4ccc(S(C)(=O)=O)cn4)cc3F)CC2)nc1 [Example A1, 2-(4-((2,6-difluoro-4-(5-(methylsulfonyl)pyridin-2-yl)phenoxy)methyl)piperidin-1-yl)-5-ethylpyrimidine] | 1 nM |
| CCc1cnc(N2CCC(COc3c(F)cc(-c4ccc(-c5nn[nH]n5)nc4)cc3F)CC2)nc1 [Example B5] | 79 nM |

| Compound | EC50 |
| --- | --- |
| CCc1cnc(N2CCC(COc3c(F)cc(-c4cnn(C)c4)cc3F)CC2)nc1 [Example A24] | 258 nM |
| CC1(OC(=O)N2CCC(COc3c(F)cc(-c4ccc(S(C)(=O)=O)cc4)cc3F)CC2)CC1 [Example D1, 1-methylcyclopropyl 4-((3,5-difluoro-4′-(methylsulfonyl)biphenyl-4-yloxy)methyl)piperidine-1-carboxylate] | 1 nM |
| CCc1cnc(N2CCC(COc3c(F)cc(-c4cccc(Cc5nnn(C)n5)c4)cc3F)CC2)nc1 [Example C5] | 22 nM |
| CCc1cnc(N2CCC(COc3c(F)cc(-c4ccc(-c5cnco5)cc4)cc3F)CC2)nc1 [Example G1, 5-(4′-((1-(5-ethylpyrimidin-2-yl)piperidin-4-yl)methoxy)-3′,5′-difluorobiphenyl-4-yl)oxazole] | 3 nM |
| CCc1cnc(N2CCC(COc3c(F)cc(-c4cnc(C(N)=O)nc4)cc3F)CC2)nc1 [Example A35] | 9 nM |
| CN1CCN(C(=O)c2ncc(-c3cc(F)c(OCC4CCN(C(=O)OC5(C)CC5)CC4)c(F)c3)cn2)CC1 [Example J12] | 14 nM |
| COc1cc(-c2cc(F)c(OCC3CCN(C(=O)OC(C)(C)C)CC3)c(F)c2)ccn1 [Example A20] | 46 nM |
| CCc1cnc(N2CCC(COc3c(F)cc(-c4ccc(Cn5ccnc5)cc4)cc3F)CC2)nc1 [Example H4] | 92 nM |
| CCc1cnc(N2CCC(COc3c(F)cc(-c4ccc(Cn5ncnn5)cc4)cc3F)CC2)nc1 [Example H5] | 28 nM |
| CC(C)(C)OC(=O)N1CCC(COc2c(F)cc(-c3cc[n+]([O-])cc3)cc2F)CC1 [Example E1, 4-(4-((1-(tert-butoxycarbonyl)piperidin-4-yl)methoxy)-3,5-difluorophenyl)pyridine 1-oxide] | 38 nM |
| CCc1cnc(N2CCC(COc3c(F)cc(-c4ccc(CN(C)C(C)=O)cc4)cc3F)CC2)nc1 [Example L1, N-((4′-((1-(5-ethylpyrimidin-2-yl)piperidin-4-yl)methoxy)-3′,5′-difluorobiphenyl-4-yl)methyl)-N-methylacetamide] | 62 nM |
| CCc1cnc(N2CCC(COc3c(F)cc(-c4cnn(CCN(C)C)c4)cc3F)CC2)nc1 [Example K1, 2-(4-(4-((1-(5-ethylpyrimidin-2-yl)piperidin-4-yl)methoxy)-3,5-difluorophenyl)-1H-pyrazol-1-yl)-N,N-dimethylethanamine] | 2070 nM |
| CCc1cnc(N2CCC(COc3c(F)cc(-c4ccc(-c5nnn(C)n5)cc4)cc3F)CC2)nc1 [Example C1, 2-(4-((3,5-difluoro-4′-(2-methyl-2H-tetrazol-5-yl)biphenyl-4-yloxy)methyl)piperidin-1-yl)-5-ethylpyrimidine] | 5 nM |
| CCc1cnc(N2CCC(COc3c(F)cc(-c4ccc(C(C)(C)O)nc4)cc3F)CC2)nc1 [Example A38] | 29 nM |
| CC1(OC(=O)N2CCC(COc3c(F)cc(-c4cnc(C(=O)N5CC[C@H](O)C5)nc4)cc3F)CC2)CC1 [Example J19] | 47 nM |
